Test results taken from ChEMBL document CHEMBL3390836, “Mannich- and LedererManasse-based analogues of the natural product S-(+)-curcuphenol as cancer proliferation and migration inhibitors” (Medchemcomm, 2012).

How the values were obtained:
Type in all cases: functional
NCI-H460 [1] = test: Cytotoxicity against human NCI-H460 cells assessed as cell growth at 10^-4 M after 48 hrs by SRB assay relative to control; details: NCI-H460, 48 h, read-out: Activity
[2] = Cytotoxicity against human HCT15 cells assessed as cell growth at 10^-4 M after 48 hrs by SRB assay relative to control; details: HCT-15, 48 h, read-out: Activity
LOX IMVI [3] = test: Cytotoxicity against human LOXIMVI cells after 48 hrs by SRB assay
[4] = Cytotoxicity against human OVCAR3 cells after 48 hrs by SRB assay; details: OVCAR-3, 48 h
RXF 393 = test: Cytotoxicity against human RXF393 cells after 48 hrs by SRB assay; details: RXF 393, 48 h
SN12C = test: Cytotoxicity against human SN12C cells after 48 hrs by SRB assay
SF-295 = test: Cytotoxicity against human SF295 cells assessed as cell growth at 10^-4 M after 48 hrs by SRB assay relative to control; details: SF-295, 48 h, read-out: Activity
SF-539 = test: Cytotoxicity against human SF539 cells assessed as cell growth at 10^-4 M after 48 hrs by SRB assay relative to control; details: SF-539, 48 h, read-out: Activity
[5] = Cytotoxicity against human PC3 cells after 48 hrs by SRB assay; details: PC-3, 48 h
MDA-MB-231 = test: Cytotoxicity against human MDA-MB-231 cells after 48 hrs by SRB assay; details: MDA-MB-231, 48 h
NCI-H226 = test: Cytotoxicity against human NCI-H226 cells assessed as cell growth at 10^-8 M after 48 hrs by SRB assay relative to control; details: NCI-H226, 48 h, read-out: Activity
HT-29 = test: Cytotoxicity against human HT-29 cells assessed as cell growth at 10^-8 M after 48 hrs by SRB assay relative to control; details: HT-29, 48 h, read-out: Activity
SK-MEL-2 [6] = test: Cytotoxicity against human SK-MEL-2 cells assessed as cell growth at 10^-4 M after 48 hrs by SRB assay relative to control; details: SK-MEL-2, 48 h, read-out: Activity
[7] = Cytotoxicity against human SKOV3 cells assessed as cell growth at 10^-4 M after 48 hrs by SRB assay relative to control; details: SK-OV-3, 48 h, read-out: Activity
TK-10 = test: Cytotoxicity against human TK10 cells assessed as cell growth at 10^-4 M after 48 hrs by SRB assay relative to control; details: TK-10, 48 h, read-out: Activity
MDA-MB-468 = test: Cytotoxicity against human MDA-MB-468 cells assessed as cell growth at 10^-4 M after 48 hrs by SRB assay relative to control; details: MDA-MB-468, 48 h, read-out: Activity
[8] = Cytotoxicity against human OVCAR4 cells assessed as cell growth at 10^-8 M after 48 hrs by SRB assay relative to control; details: OVCAR-4, 48 h, read-out: Activity
[9] = Cytotoxicity against human NCI-ADR-RES cells assessed as cell growth at 10^-8 M after 48 hrs by SRB assay relative to control; details: read-out: Activity
786-0 = test: Cytotoxicity against human 786-0 cells assessed as cell growth at 10^-8 M after 48 hrs by SRB assay relative to control; details: 786-0, 48 h, read-out: Activity
COLO 205 [10] = test: Cytotoxicity against human COLO205 cells assessed as cell growth at 10^-7 M after 48 hrs by SRB assay relative to control; details: COLO 205, 48 h, read-out: Activity
HCC 2998 = test: Cytotoxicity against human HCC2998 cells assessed as cell growth at 10^-7 M after 48 hrs by SRB assay relative to control; details: HCC 2998, 48 h, read-out: Activity
LOX IMVI [11] = test: Cytotoxicity against human LOXIMVI cells assessed as cell growth at 10^-7 M after 48 hrs by SRB assay relative to control; details: read-out: Activity
SK-MEL-2 [12] = test: Cytotoxicity against human SK-MEL-2 cells assessed as cell growth at 10^-7 M after 48 hrs by SRB assay relative to control; details: SK-MEL-2, 48 h, read-out: Activity
A549 [13] = test: Cytotoxicity against human A549 cells after 48 hrs by SRB assay; details: A549, 48 h
NCI-H322M = test: Cytotoxicity against human NCI-H322M cells after 48 hrs by SRB assay
SK-MEL-5 = test: Cytotoxicity against human SK-MEL-5 cells assessed as cell growth at 10^-7 M after 48 hrs by SRB assay relative to control; details: SK-MEL-5, 48 h, read-out: Activity
K562 = test: Cytotoxicity against human K562 cells assessed as cell growth at 10^-6 M after 48 hrs by SRB assay relative to control; details: K562, 48 h, read-out: Activity
A549 [14] = test: Cytotoxicity against human A549 cells assessed as cell growth at 10^-6 M after 48 hrs by SRB assay relative to control; details: A549, 48 h, read-out: Activity
[15] = Cytotoxicity against human EKVX cells assessed as cell growth at 10^-6 M after 48 hrs by SRB assay relative to control; details: read-out: Activity
NCI-H460 [16] = test: Cytotoxicity against human NCI-H460 cells assessed as cell growth at 10^-6 M after 48 hrs by SRB assay relative to control; details: NCI-H460, 48 h, read-out: Activity
COLO 205 [17] = test: Cytotoxicity against human COLO205 cells assessed as cell growth at 10^-6 M after 48 hrs by SRB assay relative to control; details: COLO 205, 48 h, read-out: Activity
SW-620 = test: Cytotoxicity against human SW620 cells assessed as cell growth at 10^-6 M after 48 hrs by SRB assay relative to control; details: SW-620, 48 h, read-out: Activity
IGROV-1 = test: Cytotoxicity against human IGROV1 cells assessed as cell growth at 10^-6 M after 48 hrs by SRB assay relative to control; details: IGROV-1, 48 h, read-out: Activity
[18] = Cytotoxicity against human OVCAR3 cells assessed as cell growth at 10^-6 M after 48 hrs by SRB assay relative to control; details: OVCAR-3, 48 h, read-out: Activity
[19] = Cytotoxicity against human PC3 cells assessed as cell growth at 10^-6 M after 48 hrs by SRB assay relative to control; details: PC-3, 48 h, read-out: Activity
[20] = Cytotoxicity against human EKVX cells assessed as cell growth at 10^-4 M after 48 hrs by SRB assay relative to control; details: read-out: Activity

Molecule COc1ccc(CCN2COc3c([C@@H](C)CCC=C(C)C)ccc(C)c3C2)cc1OC has a growth at 100 µM (NCI-H460 [1]) of -92%, a growth at 100 µM [2] of -87% and a GI50 (LOX IMVI [3]) of 1.77 µM. The LC50 (concentration killing 50% of cells) (LOX IMVI [3]) was 7.96 µM, the TGI (LOX IMVI [3]) was 3.75 µM and the GI50 [4] was 3.55 µM. The LC50 [4] was 40.1 µM, the TGI [4] was 14.1 µM and the GI50 (RXF 393) was 1.73 µM. The LC50 (concentration killing 50% of cells) (RXF 393) was 18.2 µM, the TGI (RXF 393) was 4.85 µM and the GI50 (SN12C) was 3.27 µM. For the same molecule, the LC50 (SN12C) was 36.8 µM, the TGI (SN12C) was 13.5 µM and the growth at 100 µM (SF-295) was -87%. For the same molecule, the growth at 100 µM (SF-539) was -100%, the GI50 [5] was 1.95 µM and the LC50 [5] was 49.3 µM. For the same molecule, the TGI [5] was 5.83 µM, the GI50 (MDA-MB-231) was 2.76 µM and the LC50 (MDA-MB-231) was 34.5 µM. For the same molecule, the TGI (MDA-MB-231) was 9.37 µM, the growth at 0.01 µM (NCI-H226) was 90% and the growth at 0.01 µM (HT-29) was 97%. For the same molecule, the growth at 100 µM (SK-MEL-2 [6]) was -95%, the growth at 100 µM [7] was -60% and the growth at 100 µM (TK-10) was -88%. It also gave a growth at 100 µM (MDA-MB-468) of -92%, a growth at 0.01 µM [8] of 96% and a growth at 0.01 µM [9] of 98%. It also gave a growth at 0.01 µM (786-0) of 101%, a growth at 0.1 µM (COLO 205 [10]) of 103% and a growth at 0.1 µM (HCC 2998) of 83%. The growth at 0.1 µM (LOX IMVI [11]) was 84%, the growth at 0.1 µM (SK-MEL-2 [12]) was 85% and the GI50 (A549 [13]) was 10.3 µM. It also gave an LC50 (A549 [13]) of 96.3 µM, a TGI (A549 [13]) of 31.5 µM and a GI50 (NCI-H322M) of 3.03 µM. It also gave an LC50 (NCI-H322M) of 55.7 µM, a TGI (NCI-H322M) of 11.6 µM and a growth at 0.1 µM (SK-MEL-5) of 91%. It also gave a growth at 1 µM (K562) of 98%, a growth at 1 µM (A549 [14]) of 95% and a growth at 1 µM [15] of 91%. It also gave a growth at 1 µM (NCI-H460 [16]) of 99%, a growth at 1 µM (COLO 205 [17]) of 100% and a growth at 1 µM (SW-620) of 93%. It also gave a growth at 1 µM (IGROV-1) of 53%, a growth at 1 µM [18] of 91% and a growth at 1 µM [19] of 81%. The growth at 100 µM [20] was -40%.

Work on CC(C)=CCC[C@H](C)c1ccc(C)c2c1OCN(CC1CCNCC1)C2 yielded a growth at 100 µM (NCI-H460 [1]) of -94%, a growth at 100 µM [2] of -83% and a GI50 (LOX IMVI [3]) of 5.87 µM. It also gave an LC50 (concentration killing 50% of cells) (LOX IMVI [3]) of 54.6 µM, a TGI (LOX IMVI [3]) of 20.2 µM and a GI50 [4] of 15.6 µM. For the same molecule, the LC50 [4] was 62.1 µM, the TGI [4] was 31.1 µM and the GI50 (RXF 393) was 9.2 µM. The LC50 (concentration killing 50% of cells) (RXF 393) was 88.3 µM, the TGI (RXF 393) was 21.7 µM and the GI50 (SN12C) was 14.2 µM. For the same molecule, the LC50 (SN12C) was 58.7 µM, the TGI (SN12C) was 28.9 µM and the growth at 100 µM (SF-295) was -67%. For the same molecule, the growth at 100 µM (SF-539) was -93%, the GI50 [5] was 16.5 µM and the LC50 [5] was > 100 µM. It also gave a TGI [5] of 42.1 µM, a GI50 (MDA-MB-231) of 12.5 µM and an LC50 (MDA-MB-231) of 64.1 µM. The TGI (MDA-MB-231) was 28.3 µM, the growth at 0.01 µM (NCI-H226) was 86% and the growth at 0.01 µM (HT-29) was 102%. It also gave a growth at 100 µM (SK-MEL-2 [6]) of -78%, a growth at 100 µM [7] of -94% and a growth at 100 µM (TK-10) of -87%. For the same molecule, the growth at 100 µM (MDA-MB-468) was -80%, the growth at 0.01 µM [8] was 102% and the growth at 0.01 µM [9] was 104%. The growth at 0.01 µM (786-0) was 96%, the growth at 0.1 µM (COLO 205 [10]) was 108% and the growth at 0.1 µM (HCC 2998) was 105%. For the same molecule, the growth at 0.1 µM (LOX IMVI [11]) was 92%, the growth at 0.1 µM (SK-MEL-2 [12]) was 111% and the GI50 (A549 [13]) was 13 µM. It also gave an LC50 (A549 [13]) of 59.7 µM, a TGI (A549 [13]) of 27.8 µM and a GI50 (NCI-H322M) of 19.4 µM. It also gave an LC50 (NCI-H322M) of 77.8 µM, a TGI (NCI-H322M) of 38.8 µM and a growth at 0.1 µM (SK-MEL-5) of 88%. For the same molecule, the growth at 1 µM (K562) was 93%, the growth at 1 µM (A549 [14]) was 96% and the growth at 1 µM [15] was 94%. For the same molecule, the growth at 1 µM (NCI-H460 [16]) was 113%, the growth at 1 µM (COLO 205 [17]) was 101% and the growth at 1 µM (SW-620) was 103%. For the same molecule, the growth at 1 µM (IGROV-1) was 106%, the growth at 1 µM [18] was 105% and the growth at 1 µM [19] was 103%. The growth at 100 µM [20] was -17%.
